Test results as given in patent US9358233B2, “Method for treating acute myeloid leukemia” (priority 2010, dated 2016).

Tested on: patients with relapsed/refractory AML
Test: Clinical trial of BI 6727 in combination with LD-Ara-C in AML patients
Format: in vivo
Experimental: BI 6727 (350 mg) was administered as a one-hour intravenous infusion on Days 1+15 every 28 days in combination with fixed dose LD-Ara-C (low-dose cytarabine) (20 mg twice daily s.c. [subcutaneous]). The starting dose of BI 6727 was based on the MTD previously determined in solid tumor patients. Patients with no progression after the first cycle were allowed to continue treatment.

[1] = preliminary, 32 patients with relapsed/refractory AML, different BI 6727 doses in combination with LD-Ara-C

Compound: CC[C@@H]1C(=O)N(C)c2cnc(Nc3ccc(C(=O)N[C@H]4CC[C@H](N5CCN(CC6CC6)CC5)CC4)cc3OC)nc2N1C(C)C [BI 6727, N-[trans-4-[4-(cyclopropylmethyl)-1-piperazinyl]cyclohexyl]-4-[[(7R)-7-ethyl-5,6,7,8-tetrahydro-5-methyl-8-(1-methylethyl)-6-oxo-2-pteridinyl]amino]-3-methoxy-benzamide]
- MTD (BI 6727 d1+15q28d in combination with LD-Ara-C): 350 mg
- DLTs as rated per protocol (kind) (human, in vivo): pneumonia, mucositis, hypersensitivity/allergic reaction and myocardial infarction
- Dose-limiting toxicities (DLTs), number of patients (human, in vivo): four
- Clinical activity (in combination with LD-Ara-C, AML patients): showed first signs of clinical activity
- Best response: incomplete blood count recovery (CRi) or complete remission (CR), number of patients [1]: seven
- Best response: partial remission, number of patients [1]: 1 patients
- Best response: temporarily stable blood values ("no change"), number of patients [1]: Six
- Progression during or at the end of the first-treatment cycle, number of patients [1]: Eleven
